According to patent US20230381142A1, “ANTILEISHMANIAL COMPOUNDS, COMPOSITIONS AND USE THEREOF” (TRUSTEES OF BOSTON UNIVERSITY, priority 2022, published 2023):
pEC50: −log10 of the molar value. Like-named read-outs stand apart in the source and are kept apart here. Marks after values point to notes of the source that are not given here.

Experiments:
[1] = tested on: B10R cells; test: UCSD infection assay, host cell cytotoxicity (CC50); type: cell-based; settings: host B10R cells
[2] = tested on: L. donovani intracellular amastigotes infecting THP-1 cells; test: High content intracellular amastigote assay in THP-1 cells (Assay Conditions B; CDIPD screen); type: cell-based, Leishmania donovani; settings: 10 μM; THP-1 cells; footnote b
Procedure: (§1) Assay Conditions B: THP-1 cells (human acute monocytic leukemia cell line—ATCC TIB202) were grown in RPMI supplemented with 10% Fetal Bovine Serum (FBS) and 50 μM 2-mercaptoethanol at 37° C. in 5% CO2. THP-1 were seeded in microwell plates at 5×10^5 cells/mL density and treated with 0.1 μM phorbol myristate acetate (PMA, Sigma) at 37° C. for 48 h for differentiation into adherent, non-dividing macrophages. After activation by PMA, cells were washed and incubated with complete RPMI medium containing stationary phase Leishmania promastigotes (L. major: strain LV39; L. donovani, strain 1S/Cl2D) at a 1:15 parasite-cell ratio. Compounds were added and incubated at 37° C. for 72 h. Cells were then washed with phosphate-buffered saline (PBS), fixed for 30 minutes with 4% formaldehyde, rinsed again with PBS, stained for 2 h with 4′,6′-diamidino-2-phenylindole (DAPI 300 nM) and finally washed with PBS. In a collaborative effort to identify new antileishmanial chemotypes with minimal host cell cytotoxicity, compounds from the Boston University Center for Molecular Discovery (BUCMD) screening collection were assessed in a phenotypic, high content primary screen at the University of California's Center for Discovery and Innovation in Parasitic Diseases (CDIPD) for the ability to inhibit growth of L. donovani intracellular amastigotes infecting THP-1 cells. […] Dose-response testing in L. donovani (both intracellular amastigotes and promastigotes) confirmed concentration-dependent growth inhibition of both morphologies of the parasite at low micromolar EC50 values for both compounds (Table 1).

[3] = tested on: L. major (strain LV39) intracellular amastigotes infecting THP-1 cells; test: High content intracellular amastigote assay in THP-1 cells (Assay Conditions B); type: cell-based, Leishmania major; settings: THP-1 cells; values marked b
Procedure: as §1

[4] = tested on: L. donovani promastigotes (strain 1S/Cl2D); test: Promastigote assay, CellTiter-Glo (Assay Conditions F); type: cell-based; settings: Leishmania donovani; footnote f; read-out: L. donovani promastigotes EC50
Procedure: (§2) Assay Conditions F: Leishmania promastigotes (L. major: strain LV39; L. donovani, strain 1S/Cl2D) were maintained as previously described in PloS Negl Trop Dis (2015) 9(3):e0003588 and Pathogens (2021) 10(5):593) at 28° C. in M199 media supplemented with glutamine, adenosine, folic acid, hemin, HEPES, 10% Fetal Bovine Serum (Sigma-Aldrich, cat. no. F2442) and 1% Penicillin-Streptomycin (Gibco, cat. no. 15140122). For the promastigote assay, we followed the method previously described in PloS Negl Trop Dis (2011) 5(7):e1253. Briefly, promastigotes were incubated with the compounds for 72 h at 27° C., then lysed by adding 50 μL of CellTiter-Glo (Promega) and placed on an orbital shaker for 5 min at room temperature. After lysis, the resulting ATP-bioluminescence was measured using the Analyst HT plate reader (Molecular Devices).

[5] = tested on: L. major promastigotes (strain LV39); test: as above; type: cell-based; settings: Leishmania major; footnote f; read-out: L. major promastigotes EC50
Procedure: as §2

[6] = tested on: THP-1 cells; test: Host THP-1 cell cytotoxicity in the CDIPD high content screen; type: cell-based, human; settings: Homo sapiens, THP-1; 10 μM; footnote b; read-out: THP-1 host cell % growth inhibition at 10 μM
Procedure: as §1

[7] = tested on: L. donovani intracellular amastigotes infecting THP-1 macrophages; test: GSK intramacrophage L. donovani assay (LD AMMAC, inMac; Assay Conditions C); type: cell-based; settings: Leishmania donovani; THP-1 cells; values marked c; read-out: L. donovani amastigotes EC50 (THP-1 cells)
Procedure, shortened: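 EC50 values come from counting amastigotes per infected THP-1 macrophage (AMMAC). Parallel read-outs give percentage of infected cells per well (INFCELL) and a macrophage-number toxicity EC50 (MAC).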

[8] = GSK inMac assay, host cell toxicity readout (LD MAC); type: cell-based, human; settings: human; footnote c; read-out: THP-1 Host Cell CC50
Procedure, shortened: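 MAC EC50 reflects THP-1 host cell counts, measured within GSK's inMac L. donovani infection assay that also scores intracellular amastigotes and infected-cell percentage.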

[9] = tested on: L. donovani intracellular amastigotes in B10R cells; test: UCSD L. donovani infection assay (Assay Conditions D); type: cell-based; settings: B10R cells; for L. donovani amastigotes EC75 (B10R cells): footnote d; for pEC50: Leishmania donovani, values marked d, read-out: L. donovani amastigotes EC50 (B10R cells)
Procedure, shortened: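 Compounds, either single-point at 10 μM or 10-point 2-fold series (3 technical, 2 biological replicates), were incubated 72 h at 37° C. with B10R host cells co-seeded with day-7 stationary L. donovani promastigotes (20:1). DAPI-stained nuclei imaging yielded intracellular parasite EC50 and host-cell CC50.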

[10] = tested on: L. braziliensis (strain BA788) in J774 cells; test: J774 luciferase infection assay (Assay Conditions E); type: cell-based, Leishmania braziliensis; settings: footnote e
Procedure, shortened: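 J774A.1 macrophages infected 24 h with luciferase/GFP-expressing stationary-phase promastigotes (L. major Friedlin or L. braziliensis BA788, 1:10 parasite:cell), washed, then exposed 48 h at 37 °C, 5% CO2 to 8-point 2-fold dilutions. OneTiterGlo bioluminescence read; EC75 calculated.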

[11] = tested on: L. braziliensis-infected macrophages; test: Macrophage (BMDM) infection with L. braziliensis and exposure to CMLDs; type: cell-based, Leishmania braziliensis; settings: for number of amastigotes per 100 macrophages / percentage of infected macrophages / pEC50: 24 h exposure; for pEC50: Leishmania braziliensis, Macrophage, percentage of infected macrophages, read-out: EC50 against L. braziliensis-infected macrophages
Procedure: Leishmania braziliensis (MIHOM/BR/00/BA788) and L. major (Friedlin) promastigotes were maintained in Schneider's medium (SIGMA) supplemented with 10% heat-inactivated FCS, 100 U/ml penicillin, 100 μg/ml streptomycin (all from Invitrogen).
BMDM were obtained as described above. Cells were resuspended in DMEM medium supplemented with 100 U/mL penicillin, […] streptomycin, and 10% heat-inactivated Fetal Bovine Serum (all from Invitrogen) and seeded at a density of 3×10^5 cells per well in 24-well culture plates. Monolayers received 3×10^6 cells L. braziliensis promastigotes and were incubated at 37° C. in supplemented DMEM medium for 24 h. Infected macrophages were then washed to remove non-internalized parasites. Compounds CMLD 011128, CMLD010947, CMLD010498, and CMLD011494 were added at different concentrations. After 24 hours, cells were extensively washed, fixed and stained with hematoxylin and eosin (H&E). The number of infected cells and of intracellular amastigotes were counted by optical microscopy in 200 macrophages. Positive controls consisted of cultures treated with Amphotericin B (0.25 μg/mL, Invitrogen). Cultures were performed in quintuplicate. Alternatively, infected macrophages were treated as described, monolayers were extensively washed and the medium was replaced by 0.5 ml of supplemented Schneider medium. Cells were cultured for seven additional days at 26° C., when number of viable promastigotes was determined using hemocytometer.
Results were expressed as the mean percentage reduction of infected cells compared with untreated control wells. Half-maximal effective concentrations (EC50) were determined by sigmoidal regression curves using Prism 7.0 software (GraphPad Software Inc.)

[12] = tested on: L. major-infected murine macrophages; test: Macrophage infection with L. major and exposure to CMLDs; type: cell-based, Leishmania major; settings: for number of intracellular amastigotes / percentage of infected cells: L. major, only observed at the highest dose (1 μM)
[13] = tested on: macrophages from bone marrow; test: Cellular viability of macrophages (Cell Titer Glo); type: cell-based, murine; settings: 500-1000 nM, 24 h
Procedure: Briefly, macrophages were obtained from bone marrow and seeded at a density of 1×10^6 cells per well in 24-well culture plates. After 2 hours, cells were treated with compounds at two concentrations (500 and 1000 nm) for 24 hours. Cell viability was determined using Cell Titer Glo (Promega), according to manufacturer's instructions. For positive control, pararosaniline chloride was used.

[14] = UCSD infection assay, host cell cytotoxicity (CC50); type: cell-based; settings: mouse, B10R host cells infected with L. donovani; footnote d
[15] = tested on: L. major (strain Friedlin) in J774 cells; test: J774 luciferase infection assay (Assay Conditions E); type: cell-based, Leishmania major; settings: values marked e
Procedure: Assay Conditions E: J774 cells (ATCC J774A.1 were grown in DMEM supplemented with 10% Fetal Bovine Serum (FBS) and 1% Penicillin-Streptomycin at 37° C. in 5% CO2. Leishmania parasites expressing luciferase and GFP were grown as described in Front. Cell. Infect. Microbiol (2019) 9:237. J774 cells were seeded in microwell plates at 3×10^5 cells/mL density. Cells were washed with PBS and incubated with complete DMEM medium containing stationary phase Leishmania promastigotes (L. major: strain Friedlin; L. braziliensis, strain BA788) at a 1:10 parasite-cell ratio for 24 h. Cells were washed with PBS. Cells and compounds were incubated for 48 h at 37° C. and 5% C02. Compounds were tested in 8-point 2-fold serial dilution in 4 technical replicates, and 2 biological replicates. After 48 h, OneTiterGlo (Promega) (100 μl) was added to each well. Plates were incubated for 15 min and bioluminescence was measured using a plate reader (Molecular Devices). Effective concentration inducing 75% activity (EC75) was calculated using GraphPad Prism Software (version 9.0).

[16] = tested on: L. donovani intracellular amastigotes infecting THP-1 macrophages; settings: GlaxoSmithKline Phase I VL candidates; read-out: intramacrophage EC50; cited from earlier work

COc1ncccc1C1c2c(CC(C)C)n[nH]c2C(=O)N1c1ccc2ncnn2c1 (stereo not shown) [BUCMD00162]
B10R Host Cell CC50 [1]: >10000 nM

COc1ccc(N2C(=O)c3[nH]nc(CC(C)C)c3C2c2ccccc2)cc1 (stereo not shown) [CMLD007427]
L. donovani amastigotes % GI at 10 μM (THP-1 cells) [2]: 100.0% | L. major amastigotes EC75 (THP-1 cells) [3]: 1.7^b μM | pEC50 [4]: 5.62 | pEC50 [5]: 5.38 | inhibition at 10 µM [6]: 11% | pEC50 [7]: 5.49 | CC50 [8]: 31600 nM | L. donovani amastigotes EC75 (B10R cells) [9]: 1100 nM

COc1ccc(N2C(=O)c3[nH]nc(CC(C)C)c3C2c2ccc(F)cc2)cc1 (stereo not shown) [CMLD007431]
L. donovani amastigotes % GI at 10 μM (THP-1 cells) [2]: 99.0% | L. major amastigotes EC75 (THP-1 cells) [3]: 1.3^b μM | pEC50 [4]: 5.70 | pEC50 [5]: 5.36 | inhibition at 10 µM [6]: 13% | pEC50 [7]: 5.60 | CC50 [8]: > 20000 nM | L. donovani amastigotes EC75 (B10R cells) [9]: 1000 nM

Cc1cc(F)ccc1C1c2c(CC(C)C)n[nH]c2C(=O)N1c1ccc2ncnn2c1 (stereo not shown) [CMLD010948]
CC50 [8]: > 20000 nM | L. donovani amastigotes EC75 (B10R cells) [9]: 1100 nM | pEC50 [9]: 6.05 | L. braziliensis amastigotes EC75 (J774 cells) [10]: 5500 nM | leishmanicidal effect on L. braziliensis infection in vitro [11]: reduces L. braziliensis infection | number of amastigotes per 100 macrophages ([11]; L. braziliensis): significant decrease | percentage of infected macrophages ([11]; L. braziliensis): significant decrease | pEC50 [11]: < 5.30 | L. major infection in vitro [12]: reduce L. major infection | number of intracellular amastigotes [12]: significant decreased | percentage of infected cells [12]: significant decreased | cell viability of macrophages [13]: did not change cell viability

COc1ccc(N2C(=O)c3[nH]nc(CC(C)C)c3[C@@H]2c2ccc(F)cc2)cc1 [CMLD011128]
pEC50 [7]: 6.10 | CC50 [8]: > 20000 nM | L. donovani amastigotes EC75 (B10R cells) [9]: 500 nM | L. braziliensis amastigotes EC75 (J774 cells) [10]: 7500 nM | leishmanicidal effect on L. braziliensis infection in vitro [11]: did not show leishmanicidal effects | percentage of infected macrophages ([11]; L. braziliensis): did not decrease

COc1cc(F)ccc1C1c2c(CC(C)C)n[nH]c2C(=O)N1c1ccc(Br)cc1 (stereo not shown) [CMLD011494]
CC50 [8]: 4000 nM | L. donovani amastigotes EC75 (B10R cells) [9]: 100 nM | pEC50 [9]: 7.00 | CC50 at 72 h [14]: 3980 nM | L. major amastigotes EC75 (J774 cells) [15]: 2.8^e μM | L. braziliensis amastigotes EC75 (J774 cells) [10]: 5200 nM | leishmanicidal effect on L. braziliensis infection in vitro [11]: reduces L. braziliensis infection | number of amastigotes per 100 macrophages ([11]; L. braziliensis): significantly reduced | percentage of infected macrophages ([11]; L. braziliensis): significantly reduced | number of viable promastigotes after exposure of infected BMDM ([11]; L. braziliensis, culture in Schneider medium): significantly reduced | pEC50 [11]: 5.79 | L. major infection in vitro [12]: reduce L. major infection | number of intracellular amastigotes [12]: significant decreased | percentage of infected cells [12]: significant decreased | cell viability of macrophages [13]: did not change cell viability

C[C@H]1CN(c2n[nH]c3nc(N[C@H]4CC[C@H](NS(=O)(=O)CCC(F)(F)F)CC4)ncc23)CCO1 [GSK3186899]
pEC50 [16]: 5.85

O=C(Nc1ccc(F)c(-c2ccn3c(N4CCOCC4)cnc3n2)c1)N1CCCC1 [GSK3494245]
pEC50 [16]: 5.80
